Assay results as given in patent publication US8192962B2, “Processes for detecting toxic substances” (Daikin Industries, Ltd., priority 2001, dated 2012).

Tested on: Stress protein genes
Assay: DNA chip mRNA expression in yeast, stress protein genes (Table 6)
Type: cell-based, Saccharomyces cerevisiae S288C
In short: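 S. cerevisiae S288C grown at 25° C in YPD were exposed in log phase for two hours to one toxic chemical at a growth-inhibiting, non-lethal concentration; untreated cells served as control. Poly(A) mRNA was reverse-transcribed with Cy3/Cy5-dUTP and hybridized to a whole-genome yeast DNA chip at 65° C for over 12 hours; values are fluorescence ratios versus untreated.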

SMILES: COc1cc(CNC(=O)CCCCC=CC(C)C)ccc1O [(12), 8-methyl-N-vanillyl-6-nonenamide]
- The level of expressed mRNA in the presence of chemical substance/The level of expressed mRNA in the absence of chemical substance (yeast gene YAL005C): 1.2
- The level of expressed mRNA in the presence of chemical substance/The level of expressed mRNA in the absence of chemical substance (yeast gene YAL015C): 1.0
- The level of expressed mRNA in the presence of chemical substance/The level of expressed mRNA in the absence of chemical substance (yeast gene YBL075C): 1.1
- The level of expressed mRNA in the presence of chemical substance/The level of expressed mRNA in the absence of chemical substance (yeast gene YBL093C): 1.1
- The level of expressed mRNA in the presence of chemical substance/The level of expressed mRNA in the absence of chemical substance (yeast gene YBR044C): 0.8
- The level of expressed mRNA in the presence of chemical substance/The level of expressed mRNA in the absence of chemical substance (yeast gene YBR054W): 0.7
- The level of expressed mRNA in the presence of chemical substance/The level of expressed mRNA in the absence of chemical substance (yeast gene YBR067C): 1.0
- The level of expressed mRNA in the presence of chemical substance/The level of expressed mRNA in the absence of chemical substance (yeast gene YBR072W): 16.3
- The level of expressed mRNA in the presence of chemical substance/The level of expressed mRNA in the absence of chemical substance (yeast gene YBR126C): 1.3
- The level of expressed mRNA in the presence of chemical substance/The level of expressed mRNA in the absence of chemical substance (yeast gene YBR169C): 1.7
- The level of expressed mRNA in the presence of chemical substance/The level of expressed mRNA in the absence of chemical substance (yeast gene YCL035C): 1.5
- The level of expressed mRNA in the presence of chemical substance/The level of expressed mRNA in the absence of chemical substance (yeast gene YCR021C): 0.5
- The level of expressed mRNA in the presence of chemical substance/The level of expressed mRNA in the absence of chemical substance (yeast gene YCR060W): 1.7
- The level of expressed mRNA in the presence of chemical substance/The level of expressed mRNA in the absence of chemical substance (yeast gene YCR083W): 1.1
- The level of expressed mRNA in the presence of chemical substance/The level of expressed mRNA in the absence of chemical substance (yeast gene YDL022W): 1.2
- The level of expressed mRNA in the presence of chemical substance/The level of expressed mRNA in the absence of chemical substance (yeast gene YDL025C): 0.9
- The level of expressed mRNA in the presence of chemical substance/The level of expressed mRNA in the absence of chemical substance (yeast gene YDR033W): 1.0
- The level of expressed mRNA in the presence of chemical substance/The level of expressed mRNA in the absence of chemical substance (yeast gene YDR077W): 0.8
- The level of expressed mRNA in the presence of chemical substance/The level of expressed mRNA in the absence of chemical substance (yeast gene YDR098C): 1.3
- The level of expressed mRNA in the presence of chemical substance/The level of expressed mRNA in the absence of chemical substance (yeast gene YDR155C): 1.4
- The level of expressed mRNA in the presence of chemical substance/The level of expressed mRNA in the absence of chemical substance (yeast gene YDR258C): 1.8
- The level of expressed mRNA in the presence of chemical substance/The level of expressed mRNA in the absence of chemical substance (yeast gene YDR293C): 0.9
- The level of expressed mRNA in the presence of chemical substance/The level of expressed mRNA in the absence of chemical substance (yeast gene YDR436W): 0.9
- The level of expressed mRNA in the presence of chemical substance/The level of expressed mRNA in the absence of chemical substance (yeast gene YDR513W): 0.9
- The level of expressed mRNA in the presence of chemical substance/The level of expressed mRNA in the absence of chemical substance (yeast gene YDR519W): 1.7
- The level of expressed mRNA in the presence of chemical substance/The level of expressed mRNA in the absence of chemical substance (yeast gene YEL030W): 0.9
- The level of expressed mRNA in the presence of chemical substance/The level of expressed mRNA in the absence of chemical substance (yeast gene YEL039C): 0.6
- The level of expressed mRNA in the presence of chemical substance/The level of expressed mRNA in the absence of chemical substance (yeast gene YER042W): 1.1
- The level of expressed mRNA in the presence of chemical substance/The level of expressed mRNA in the absence of chemical substance (yeast gene YER057C): 1.5
- The level of expressed mRNA in the presence of chemical substance/The level of expressed mRNA in the absence of chemical substance (yeast gene YER103W): 1.9
- The level of expressed mRNA in the presence of chemical substance/The level of expressed mRNA in the absence of chemical substance (yeast gene YER125W): 0.7
- The level of expressed mRNA in the presence of chemical substance/The level of expressed mRNA in the absence of chemical substance (yeast gene YFL014W): 4.3
- The level of expressed mRNA in the presence of chemical substance/The level of expressed mRNA in the absence of chemical substance (yeast gene YFL016C): 1.0
- The level of expressed mRNA in the presence of chemical substance/The level of expressed mRNA in the absence of chemical substance (yeast gene YFL020C): 1.3
- The level of expressed mRNA in the presence of chemical substance/The level of expressed mRNA in the absence of chemical substance (yeast gene YFR052W): 1.8
- The level of expressed mRNA in the presence of chemical substance/The level of expressed mRNA in the absence of chemical substance (yeast gene YGL073W): 0.8
- The level of expressed mRNA in the presence of chemical substance/The level of expressed mRNA in the absence of chemical substance (yeast gene YGL115W): 0.9
- The level of expressed mRNA in the presence of chemical substance/The level of expressed mRNA in the absence of chemical substance (yeast gene YGL181W): 1.0
- The level of expressed mRNA in the presence of chemical substance/The level of expressed mRNA in the absence of chemical substance (yeast gene YGR088W): 1.1
- The level of expressed mRNA in the presence of chemical substance/The level of expressed mRNA in the absence of chemical substance (yeast gene YHL028W): 1.5
- The level of expressed mRNA in the presence of chemical substance/The level of expressed mRNA in the absence of chemical substance (yeast gene YHL046C): 1.1
- The level of expressed mRNA in the presence of chemical substance/The level of expressed mRNA in the absence of chemical substance (yeast gene YHR030C): 0.7
- The level of expressed mRNA in the presence of chemical substance/The level of expressed mRNA in the absence of chemical substance (yeast gene YHR057C): 1.1
- The level of expressed mRNA in the presence of chemical substance/The level of expressed mRNA in the absence of chemical substance (yeast gene YHR104W): 1.0
- The level of expressed mRNA in the presence of chemical substance/The level of expressed mRNA in the absence of chemical substance (yeast gene YIL011W): 0.6
- The level of expressed mRNA in the presence of chemical substance/The level of expressed mRNA in the absence of chemical substance (yeast gene YIL033C): 1.1
- The level of expressed mRNA in the presence of chemical substance/The level of expressed mRNA in the absence of chemical substance (yeast gene YIR037W): 1.3
- The level of expressed mRNA in the presence of chemical substance/The level of expressed mRNA in the absence of chemical substance (yeast gene YIR038C): 1.1
- The level of expressed mRNA in the presence of chemical substance/The level of expressed mRNA in the absence of chemical substance (yeast gene YJL128C): 1.0
- The level of expressed mRNA in the presence of chemical substance/The level of expressed mRNA in the absence of chemical substance (yeast gene YJL158C): 1.1
- The level of expressed mRNA in the presence of chemical substance/The level of expressed mRNA in the absence of chemical substance (yeast gene YJL159W): 1.0
- The level of expressed mRNA in the presence of chemical substance/The level of expressed mRNA in the absence of chemical substance (yeast gene YJL165C): 0.9
- The level of expressed mRNA in the presence of chemical substance/The level of expressed mRNA in the absence of chemical substance (yeast gene YJR045C): 1.0
- The level of expressed mRNA in the presence of chemical substance/The level of expressed mRNA in the absence of chemical substance (yeast gene YJR090C): 0.8
- The level of expressed mRNA in the presence of chemical substance/The level of expressed mRNA in the absence of chemical substance (yeast gene YKL161C): 0.9
- The level of expressed mRNA in the presence of chemical substance/The level of expressed mRNA in the absence of chemical substance (yeast gene YKL163W): 0.9
- The level of expressed mRNA in the presence of chemical substance/The level of expressed mRNA in the absence of chemical substance (yeast gene YKL164C): 0.8
- The level of expressed mRNA in the presence of chemical substance/The level of expressed mRNA in the absence of chemical substance (yeast gene YKL210W): 1.3
- The level of expressed mRNA in the presence of chemical substance/The level of expressed mRNA in the absence of chemical substance (yeast gene YKR053C): 0.7
- The level of expressed mRNA in the presence of chemical substance/The level of expressed mRNA in the absence of chemical substance (yeast gene YLL024C): 1.0
- The level of expressed mRNA in the presence of chemical substance/The level of expressed mRNA in the absence of chemical substance (yeast gene YLL026W): 1.9
- The level of expressed mRNA in the presence of chemical substance/The level of expressed mRNA in the absence of chemical substance (yeast gene YLL039C): 1.0
- The level of expressed mRNA in the presence of chemical substance/The level of expressed mRNA in the absence of chemical substance (yeast gene YLL060C): 1.1
- The level of expressed mRNA in the presence of chemical substance/The level of expressed mRNA in the absence of chemical substance (yeast gene YLR006C): 0.7
- The level of expressed mRNA in the presence of chemical substance/The level of expressed mRNA in the absence of chemical substance (yeast gene YLR109W): 1.6
- The level of expressed mRNA in the presence of chemical substance/The level of expressed mRNA in the absence of chemical substance (yeast gene YLR259C): 0.7
- The level of expressed mRNA in the presence of chemical substance/The level of expressed mRNA in the absence of chemical substance (yeast gene YML007W): 1.1
- The level of expressed mRNA in the presence of chemical substance/The level of expressed mRNA in the absence of chemical substance (yeast gene YML070W): 1.3
- The level of expressed mRNA in the presence of chemical substance/The level of expressed mRNA in the absence of chemical substance (yeast gene YMR021C): 0.8
- The level of expressed mRNA in the presence of chemical substance/The level of expressed mRNA in the absence of chemical substance (yeast gene YMR173W): 1.4
- The level of expressed mRNA in the presence of chemical substance/The level of expressed mRNA in the absence of chemical substance (yeast gene YMR186W): 1.0
- The level of expressed mRNA in the presence of chemical substance/The level of expressed mRNA in the absence of chemical substance (yeast gene YNL064C): 0.8
- The level of expressed mRNA in the presence of chemical substance/The level of expressed mRNA in the absence of chemical substance (yeast gene YNL160W): 1.4
- The level of expressed mRNA in the presence of chemical substance/The level of expressed mRNA in the absence of chemical substance (yeast gene YNL241C): 2.0
- The level of expressed mRNA in the presence of chemical substance/The level of expressed mRNA in the absence of chemical substance (yeast gene YNR076W): 0.7
- The level of expressed mRNA in the presence of chemical substance/The level of expressed mRNA in the absence of chemical substance (yeast gene YOL064C): 0.9
- The level of expressed mRNA in the presence of chemical substance/The level of expressed mRNA in the absence of chemical substance (yeast gene YOL161C): 1.3
- The level of expressed mRNA in the presence of chemical substance/The level of expressed mRNA in the absence of chemical substance (yeast gene YOR008C): 0.7
- The level of expressed mRNA in the presence of chemical substance/The level of expressed mRNA in the absence of chemical substance (yeast gene YOR009W): 0.4
- The level of expressed mRNA in the presence of chemical substance/The level of expressed mRNA in the absence of chemical substance (yeast gene YOR010C): 0.5
- The level of expressed mRNA in the presence of chemical substance/The level of expressed mRNA in the absence of chemical substance (yeast gene YOR027W): 1.3
- The level of expressed mRNA in the presence of chemical substance/The level of expressed mRNA in the absence of chemical substance (yeast gene YOR208W): 1.2
- The level of expressed mRNA in the presence of chemical substance/The level of expressed mRNA in the absence of chemical substance (yeast gene YPL059W): 0.8
- The level of expressed mRNA in the presence of chemical substance/The level of expressed mRNA in the absence of chemical substance (yeast gene YPL106C): 1.1
- The level of expressed mRNA in the presence of chemical substance/The level of expressed mRNA in the absence of chemical substance (yeast gene YPL140C): 0.8
- The level of expressed mRNA in the presence of chemical substance/The level of expressed mRNA in the absence of chemical substance (yeast gene YPL194W): 0.9
- The level of expressed mRNA in the presence of chemical substance/The level of expressed mRNA in the absence of chemical substance (yeast gene YPL223C): 0.9
- The level of expressed mRNA in the presence of chemical substance/The level of expressed mRNA in the absence of chemical substance (yeast gene YPL240C): 0.8
- The level of expressed mRNA in the presence of chemical substance/The level of expressed mRNA in the absence of chemical substance (yeast gene YPR005C): 0.6
- The level of expressed mRNA in the presence of chemical substance/The level of expressed mRNA in the absence of chemical substance (yeast gene YPR026W): 1.2
